Assay results as given in US9345766B2, “Combination therapies comprising anti-ERBB3 agents” (Merrimack Pharmaceuticals, Inc., priority 2012, dated 2016).

System: phospho-ErbB3 (pErbB3)
Assay type: cell-based
Details: incubation 15 minutes to 24 hours
Protocol: Cell lysates are probed for phospho-ErbB3 (pErbB3), and phospho-AKT (pAKT) by ELISA as described previously (Schoeberl et al, 2009) Inhibitor IC50 values are calculated by fitting dose-response data to a 4-parameter sigmoidal curve (GraphPad Prism®, GraphPad Software, Inc., La Jolla, Calif.).
Model-generated dose-response curves overlay the experimental data (FIG. 7a). […] Untreated and heregulin-stimulated cells were probed for pErbB3 and pAKT and the IC50 was calculated (FIG. 7b).
Amounts of pAKT and pErbB3 were measured by ELISA essentially as described.

## MM-111: bispecific anti-ErbB2/anti-ErbB3 antibody, scFv HSA conjugate, amino acid sequence SEQ ID NO:1
  ability to inhibit heregulin-induced ErbB3 activation relative to lapatinib: superior to lapatinib by greater than an order of magnitude
